Several values for one entry are separate records, joined by “and”; a condition that tells them apart may be missing. Equal values may be shown once.
How the values were obtained:
[1] = tested on: levator ani muscle, urethra and endometrium; assay: Proof of concept clinical study: quantitative pelvic MRI; assay type: in vivo, human
Source text: (§1) Secondary Objectives: • To describe the effect of 12 weeks of treatment of Compound IX on the number of voids/day as assessed by the 3 days voiding diary. […] See Tables 2 (individual subject data) and Tables 4-6 (mean pad weight data for sites 1, 2, and 3, respectively), and FIG. 17 for mean and median reductions in pad weights from baseline to week 12 (across all sites). • To describe the effect of 12 weeks of treatment of Compound IX on SUI as assessed by the Urethral Pressure Profile (UPP). The UPP assessment was removed from the protocol because it is invasive and not standard of care. […] See summary data for all subjects across the 3 sites reported in Table 7 and FIGS. 13A and 13B. • Described is the effect of 12 weeks of treatment of Compound IX on subject reported impression of stress urinary incontinence severity as assessed by the Patient Global Impression of Severity Scale (PGI-S). See summary data for all subjects across the 3 sites reported in FIG. 12A. • Described is the effect of 12 weeks of treatment of Compound IX on subject reported impression of improvement as assessed by the Patient Global Impression of Improvement Scale (PGI-I). See summary data for all subjects across the 3 sites reported in FIG. 12B. • Described is the effect of 12 weeks of treatment of Compound IX on subject reported urogenital distress as assessed by the Urinary Distress Inventory Questionnaire (UDI-6). See summary data for all subjects across of 3 sites reported in Table 7 and FIG. 12C. • Described is the effect of 12 weeks of treatment of Compound IX on subject reported impact of urinary incontinence on daily life as assessed by the Incontinence Impact Questionnaire (IIQ-7). See summary data for all subjects across the 3 sites reported in Table 7 and FIG. 12D. • Described is the effect of 12 weeks of treatment of Compound IX on subject reported sexual function as indicated on the completion of the Female Sexual Function Index Questionnaire (FSFI). See summary data for all subjects across the 3 sites reported in Table 7 and FIG. 15. • Described is the effect of 12 weeks of treatment of Compound IX on pelvic floor muscles as measured by MRI. See FIG. 11 wherein the pelvic MRI for one representative subject on trial is reported at baseline and at 12 weeks, FIG. 16 wherein the pelvic MRI's for three representative subjects on trial are reported at baseline and at 12 weeks, and Example 19 and Table 13 which provide individual measurements of levator ani thickness, inner and outer diameter of the urethra, and endometrial thickness, and mean changes in the same from baseline to week 12.
Quantitative MRI was used to visualize the pelvic floor of all post-menopausal subjects with SUI.
In a continuation of the same study from Example 3, quantitative MRI was used to visualize the pelvic floor of 17 post-menopausal subjects with SUI. MRI was used to visualize and measure the mean thickness of the levator ani muscle, inner and outer diameter of the urethra, and the endometrial thickness of patients on trial at baseline and at the MRI visits approximately 12 weeks after baseline (exact times between baseline and second MRI are given). All data analysis used a significance value of 0.05 with one-tailed paired t-test. The mean change in each measurement and the statistical significance calculation for each value are given below: […]

[2] = tested on: postmenopausal women with SUI; assay: Proof of concept clinical study: quality of life questionnaires (FSFI, UDI-6, IIQ-7, MESA, PGI-I, PGI-S); assay type: in vivo, human
Source text: as §1
The data were collected from 18 patients at 12 weeks. Data collection/analysis for additional secondary endpoints are ongoing. Women reported improved quality of life measurements in each of the five instruments collected in the study, including the Patient Global Impression of Improvement (PGI-I) and Female Sexual Function Index (FSFI). FIG. 15 provides the FSFI overall scores from baseline to 16 weeks.
The QOL measurements are described in greater detail above and are well-known and validated measures.

[3] = 17 subjects, baseline to about week 12
[4] = individual patients, about 12 weeks

## C[C@](O)(COc1ccc(C#N)cc1)C(=O)Nc1ccc(C#N)c(C(F)(F)F)c1 [Compound IX, (S)—N-(4-Cyano-3-(trifluoromethyl)phenyl)-3-(4-cyanophenoxy)-2-hydroxy-2-methylpropanamide]
[1]; 17 subjects, baseline 4.79 mm to week 12, p=0.006
  mean change in levator ani muscle thickness: 1.15 mm
[1]; [3]
  mean change in urethra inner diameter: 0.07 cm
  mean change in urethra outer diameter: 0.07 cm
[1]; [4]
  Endometrial stripe, follow up MRI: 2 mm (9×) and 3 mm (2×) and 5 mm and 4 mm (2×)
  Mean levator ani (LA) thickness at the level of the proximal urethra, follow up MRI: 4 mm (3×) and 5 mm (3×) and 6 mm (4×) and 1 mm and 6.5 mm and 8 mm and 10.5 mm and 7 mm (2×) and 10 mm
  Urethra inner diameter, follow up MRI: 1.4 cm (2×) and 1.1 cm (3×) and 1.2 cm (2×) and 1 cm (4×) and 0.9 cm (2×) and 1.3 cm (4×)
  Urethra outer diameter, follow up MRI: 1.7 cm (2×) and 1.6 cm (5×) and 1.8 cm (3×) and 1.4 cm (2×) and 1.2 cm and 2 cm and 1.9 cm and 1.3 cm (2×)
[1]; week 12, baseline 10.7 mm, p=0.002
  mean increase in inner urethral muscle diameter: 0.7 mm
[1]; week 12, baseline 15.4 mm, p=0.0003
  mean increase in outer urethral muscle diameter: 0.7 mm
[2]; 12 weeks, 12 patients moderate or severe at baseline, none severe at 12 weeks
  patients reporting moderate symptoms on PGI-S: 3 patients
[2]; 18 patients, baseline 56
  MESA Urge median score at 12 weeks: 22
[2]; 18 patients, baseline 79.5
  MESA Stress median score at 12 weeks: 44.5
[2]; scale range 0-100, baseline 45.83
  UDI-6 median score at 12 weeks: 31.25
[2]; scale range 0-100, baseline 50.00
  IIQ-7 median score at 12 weeks: 11.90
[2]; scale range 2-36, baseline 15.90
  FSFI median score at 12 weeks: 28.05 and 28.00 and 28.20
[2]; week 12
  patients with improved PGI-I scores: 17 of 18

Reference: patent US20180353460A1, “METHODS OF TREATING UROLOGICAL DISORDERS USING SARMs” (priority 2014, published 2018)
